{"source": "patent US20120201915A1", "about": "“THERAPEUTIC COMPOSITION” (priority 2009, published 2012)", "tested_on": "contact dermatitis from poison sumac", "assay": "Case-study: contact dermatitis from poison sumac", "assay_type": "in vivo, human", "details": "used by the patient before Composition I", "text": "In one case-study, a patient had contact dermatitis from poison sumac which was on the volar surfaces of both arms from the hand to the elbow. […] They continued application of the Composition I, TID (three daily doses), and by four days, their skin had healed.", "data": [{"molecule": "C[C@]12CCC(=O)C=C1CC[C@@H]1[C@@H]2C(=O)C[C@@]2(C)[C@H]1CC[C@]2(O)C(=O)CO", "note": "[cortisone]", "values": [{"measurement": "relief from earlier topical treatments", "result": "without relief"}]}]}
